In ChEMBL document CHEMBL5543153, “Discovery of a Potent Dual Son of Sevenless 1 (SOS1) and Epidermal Growth Factor Receptor (EGFR) Inhibitor for the Treatment of Prostate Cancer” (J Med Chem, 2024):
Calls of active or inactive are those of the source. No cut-off for these calls is given here.

How the values were obtained:
PC-3 [1] = experiment: Antitumor activity against human PC-3 cells xenografted in BALB/c mouse assessed as reduction in tumor volume at 5 mg/kg,ip administrated once every 4 days for 24 days; type: functional, organism-based; conditions: time 24.0 day
PC-3 [2] = experiment: Induction of apoptosis in human PC-3 cells assessed as early apoptotic cells at 0.5 uM by Annexin V-FITC staining based flow cytometry (reference value: 2.64%); type: functional
[3] = Toxicity in BALB/c mouse xenografted with human PC-3 cells assessed as change in ALT level at 5 mg/kg,ip administrated once every 4 days for 24 days by automatic biochemical analyzer; type: organism-based; conditions: in vivo, 576 h, time 24 day
[4] = target: Epidermal growth factor receptor (Homo sapiens, UniProt P00533); experiment: Inhibition of EGFR (unknown origin) using ultra ULight GT peptide as substrate incubated for 2 hrs
Epidermal growth factor receptor, sequence (P00533 whole entry): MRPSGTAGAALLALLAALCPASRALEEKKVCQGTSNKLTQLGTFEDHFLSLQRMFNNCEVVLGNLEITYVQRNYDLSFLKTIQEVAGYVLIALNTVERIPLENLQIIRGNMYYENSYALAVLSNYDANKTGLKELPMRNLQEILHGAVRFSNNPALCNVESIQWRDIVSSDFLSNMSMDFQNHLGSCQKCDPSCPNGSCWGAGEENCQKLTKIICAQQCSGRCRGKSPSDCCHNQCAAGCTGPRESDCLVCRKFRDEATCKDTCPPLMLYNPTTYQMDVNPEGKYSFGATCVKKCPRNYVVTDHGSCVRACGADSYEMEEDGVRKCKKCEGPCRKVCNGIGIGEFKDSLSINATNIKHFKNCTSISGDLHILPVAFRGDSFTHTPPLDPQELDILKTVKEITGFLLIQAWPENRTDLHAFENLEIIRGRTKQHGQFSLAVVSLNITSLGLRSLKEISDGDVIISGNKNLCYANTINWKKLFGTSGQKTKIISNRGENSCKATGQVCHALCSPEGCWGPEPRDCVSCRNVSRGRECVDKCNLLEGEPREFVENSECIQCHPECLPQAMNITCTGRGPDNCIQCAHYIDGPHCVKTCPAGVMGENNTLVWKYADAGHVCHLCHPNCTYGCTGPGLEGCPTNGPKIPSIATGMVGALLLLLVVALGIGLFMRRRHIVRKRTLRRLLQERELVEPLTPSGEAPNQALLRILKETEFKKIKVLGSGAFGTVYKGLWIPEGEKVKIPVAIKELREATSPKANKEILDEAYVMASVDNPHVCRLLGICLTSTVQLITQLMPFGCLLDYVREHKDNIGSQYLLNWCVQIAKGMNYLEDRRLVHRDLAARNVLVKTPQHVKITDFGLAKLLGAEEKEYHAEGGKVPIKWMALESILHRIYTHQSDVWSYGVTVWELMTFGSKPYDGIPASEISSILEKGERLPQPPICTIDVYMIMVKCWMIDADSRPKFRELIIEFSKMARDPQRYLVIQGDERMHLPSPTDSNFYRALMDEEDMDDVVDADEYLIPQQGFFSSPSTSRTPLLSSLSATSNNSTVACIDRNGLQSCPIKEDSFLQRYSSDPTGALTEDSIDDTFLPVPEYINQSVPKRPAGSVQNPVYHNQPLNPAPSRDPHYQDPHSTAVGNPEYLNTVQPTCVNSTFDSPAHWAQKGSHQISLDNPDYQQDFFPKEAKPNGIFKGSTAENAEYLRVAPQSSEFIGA

DLD-1 = experiment: Antiproliferative activity against human DLD-1 cells assessed as inhibition of cell growth incubated for 72 hrs by MTT assay; type: functional, cell-based
PC-3 [5] = experiment: Antiproliferative activity against human PC-3 cells transfected with SOS1 shRNA assessed as inhibition of cell growth incubated for 72 hrs by MTT assay; type: functional, cell-based; conditions: PC-3, 72 h
[6] = Toxicity in BALB/c mouse xenografted with human PC-3 cells assessed as change in body weight at 20 mg/kg,ip administrated once every 4 days for 24 days; type: organism-based; conditions: in vivo, 576 h, time 24 day
SK-LU-1 = experiment: Antiproliferative activity against human SK-LU-1 cells harboring KRAS G12D mutant assessed as inhibition of cell growth incubated for 72 hrs by MTT assay; type: functional, cell-based; conditions: SK-LU-1, 72 h
[7] = Toxicity in BALB/c mouse xenografted with human PC-3 cells assessed as liver pathological change at 5 mg/kg,ip administrated once every 4 days for 24 days by hematoxylin and eosin staining based analysis; type: organism-based; conditions: in vivo, 576 h, time 24 day
[8] = target: T1, Son of sevenless homolog 1 (Homo sapiens) (UniProt Q07889); experiment: Inhibition of SOS1 in human PC-3 cells assessed as downregulation of AKT phosphorylation at 12.5 uM incubated for 15 mins by Western blotting analysis; type: cell-based
T1 sequence (whole entry): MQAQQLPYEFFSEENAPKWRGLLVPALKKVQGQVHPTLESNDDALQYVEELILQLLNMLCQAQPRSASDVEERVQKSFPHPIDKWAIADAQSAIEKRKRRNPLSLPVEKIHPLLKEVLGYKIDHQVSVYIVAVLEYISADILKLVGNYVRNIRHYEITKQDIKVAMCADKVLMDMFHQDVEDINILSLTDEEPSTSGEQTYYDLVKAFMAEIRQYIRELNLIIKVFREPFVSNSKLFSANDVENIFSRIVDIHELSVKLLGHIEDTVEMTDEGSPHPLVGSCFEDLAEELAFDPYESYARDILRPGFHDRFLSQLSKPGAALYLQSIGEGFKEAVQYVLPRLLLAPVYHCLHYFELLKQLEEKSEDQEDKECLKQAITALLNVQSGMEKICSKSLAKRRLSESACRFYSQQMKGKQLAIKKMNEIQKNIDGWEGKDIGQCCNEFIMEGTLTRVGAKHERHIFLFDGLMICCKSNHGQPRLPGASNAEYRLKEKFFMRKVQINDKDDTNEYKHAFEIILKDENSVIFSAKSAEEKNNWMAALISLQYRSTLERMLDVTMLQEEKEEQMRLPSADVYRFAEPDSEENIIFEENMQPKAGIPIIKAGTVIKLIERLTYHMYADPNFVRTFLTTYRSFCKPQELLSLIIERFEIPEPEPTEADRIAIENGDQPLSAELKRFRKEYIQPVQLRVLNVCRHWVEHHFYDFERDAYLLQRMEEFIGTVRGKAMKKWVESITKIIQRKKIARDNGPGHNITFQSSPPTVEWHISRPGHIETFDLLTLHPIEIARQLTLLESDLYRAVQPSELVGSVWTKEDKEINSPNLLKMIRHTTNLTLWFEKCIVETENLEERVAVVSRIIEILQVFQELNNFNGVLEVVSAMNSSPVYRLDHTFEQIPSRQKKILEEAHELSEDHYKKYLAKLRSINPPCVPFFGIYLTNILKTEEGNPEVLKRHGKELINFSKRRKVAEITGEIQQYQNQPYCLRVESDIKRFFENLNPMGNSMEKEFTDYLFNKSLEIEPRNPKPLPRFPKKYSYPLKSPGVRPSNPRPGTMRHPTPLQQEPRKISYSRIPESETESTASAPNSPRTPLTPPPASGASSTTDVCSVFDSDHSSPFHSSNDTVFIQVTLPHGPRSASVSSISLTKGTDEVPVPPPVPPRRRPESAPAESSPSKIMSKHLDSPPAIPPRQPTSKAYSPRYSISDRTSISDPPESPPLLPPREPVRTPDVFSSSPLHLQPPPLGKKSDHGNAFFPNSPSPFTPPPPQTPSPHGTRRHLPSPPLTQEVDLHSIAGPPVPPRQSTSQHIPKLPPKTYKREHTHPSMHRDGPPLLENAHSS

PC-3 [9] = experiment: Induction of cell cycle arrest in human PC-3 cells assessed as accumulation of cells at G1 phase at 2.5 uM by PI staining based flow cytometry (reference value: 75.66%); type: functional
[10] = Toxicity in BALB/c mouse xenografted with human PC-3 cells assessed as change in creatinine level at 20 mg/kg,ip administrated once every 4 days for 24 days by automatic biochemical analyzer; type: organism-based; conditions: in vivo, 576 h, time 24 day
[11] = Toxicity in BALB/c mouse xenografted with human PC-3 cells assessed as change in ALT level at 20 mg/kg,ip administrated once every 4 days for 24 days by automatic biochemical analyzer; type: organism-based; conditions: in vivo, 576 h, time 24 day
HUVEC [12] = experiment: Antiangiogenic activity in HUVEC cells assessed as reduction in total branching length at 0.5 to 12.5 uM incubated for 8 hrs by matrigel based microscopic analysis; type: functional, cell-based; conditions: Homo sapiens, dose 0.5-12.5 µM
PC-3 [13] = experiment: Induction of apoptosis in human PC-3 cells assessed as late apoptotic cells at 0.5 uM by Annexin V-FITC staining based flow cytometry (reference value: 1.93%); type: functional
PC-3 [14] = experiment: Induction of apoptosis in human PC-3 cells assessed as necrotic cells at 2.5 uM by Annexin V-FITC staining based flow cytometry (reference value: 0.48%); type: functional
HUVEC [15] = experiment: Inhibition of cell migration in HUVEC cells assessed as reduction in invasion index at 0.5 to 12.5 uM measured after 48 hrs by crystal violet staining based transwell invasion assay; type: functional; conditions: Homo sapiens, dose 0.5-12.5 µM
[16] = Toxicity in BALB/c mouse xenografted with human PC-3 cells assessed as change in AST level at 5 mg/kg,ip administrated once every 4 days for 24 days by automatic biochemical analyzer; type: organism-based; conditions: in vivo, 576 h, time 24 day
PC-3 [17] = experiment: Induction of apoptosis in human PC-3 cells assessed as late apoptotic cells at 12.5 uM by Annexin V-FITC staining based flow cytometry (reference value: 1.93%); type: functional
HUVEC [18] = experiment: Antiangiogenic activity in HUVEC cells assessed as reduction in tube segments at 0.5 to 12.5 uM incubated for 8 hrs by matrigel based microscopic analysis; type: functional, cell-based; conditions: Homo sapiens, dose 0.5-12.5 µM
PC-3 [19] = experiment: Induction of apoptosis in human PC-3 cells assessed as early apoptotic cells at 12.5 uM by Annexin V-FITC staining based flow cytometry (reference value: 2.64%); type: functional

## COc1cc2ncnc(N[C@H](C)c3cccc(F)c3)c2cc1OC1CCOCC1
PC-3 [1]
  Activity: Active
PC-3 [2]
  Activity: 11.7%
[3]
  Activity: Non-Toxic
[4]
  IC50: 1.01 nM
DLD-1
  Activity: Active
PC-3 [5]
  IC50: 3920 nM
[6]
  Activity: Toxic
SK-LU-1
  IC50: 550 nM
[7]
  Activity: Toxic
[8]
  inhibition: Active
PC-3 [9]
  Activity: 81.85%
[10]
  Activity: Non-Toxic
[11]
  Activity: Non-Toxic
HUVEC [12]
  Activity: Active
PC-3 [13]
  Activity: 2.74%
PC-3 [14]
  Activity: 0.57%
HUVEC [15]
  inhibition: Active
[16]
  Activity: Non-Toxic
PC-3 [17]
  Activity: 4.07%
HUVEC [18]
  Activity: Active
PC-3 [19]
  Activity: 21.5%
